US6777445B2, “Fullerene pharmaceutical compositions for preventing or treating disorders” (priority 2000, dated 2004)

Tested on: E. coli
Assay: E. coli-induced meningitis death, C60(C3) given immediately before E. coli (Test 1)
Type: in vivo, B6 mice
Conditions: 6 mg/kg i.p. C60(C3), again at 24 and 48 hours
Experimental: E. coli ATCC 10536 was cultured in Luria-Bertain (LB) broth (1% NaCl, 1% tryptone, 0.5% yeast extract) for 12 hours and was subcultured in fresh medium for another 3 h. The concentration of E. coli was determined with a spectrophotometer (Beckman Instrument, Somerset, N.J.), with an optical density at 600 nm of 1 equal to […] (Wang, S. D., et al., J. Immunol. 152:5014-5021). For the induction of meningitis, groups of three to four mice were given intracerebral injections directly into the temporal area of a volume of 5×10^5 E. coli cells diluted in saline. The 100% lethal dose (LD100) by intracerebral injection in B6 mice is 5×10^5 E. coli cells. The animals were observed every 12 hours for a total of 6 days. In some experiments, the brains were aseptically removed and were homogenized with 3% gelatin (Difco Laboratories, Detroit, Mich.) in PBS. The samples were serial diluted, poured in agar plates, and incubated at 37° C. overnight. The number of colony forming units (CFU) of E. coli was quantitated and was expressed as the mean±standard deviation per mouse. […] The growth curve of E. coli was determined in LB broth to evaluate the direct antimicrobial activity of C60(C3).
Groups of 10 B6 mice were inoculated intracerebrally with 5×10^5 E. coli per mouse. […] The mice were monitored for death every 12 hours for 6 days.

C[C@@H]1C[C@H]2[C@@H]3CCC4=CC(=O)C=C[C@]4(C)[C@@]3(F)[C@@H](O)C[C@]2(C)[C@@]1(O)C(=O)CO [dexamethasone]
mice protected from E. coli-induced death: 20%
